In US12173212B2, “Design, synthesis, and photophysical properties of a novel NIR II dye for biological imaging and optoelectronic devices” (University of Mississippi, priority 2020, dated 2024):

How the values were obtained:
[1] = Fluorescence spectra (Horiba QuantaMaster 8075-21 spectrofluorometer, InGaAs detector); type: physicochemical; settings: closed spirolactone structure
Description: (§1) All chemicals and solvents were purchased from commercial suppliers and used without further purification unless other-wise specified. ^1H NMR (500 MHz) and ^13C NMR ([…]) spectra were recorded in deuterated solvents on a Bruker ADVANCE 500 NMR Spectrometer. J values are expressed in Hz and quoted chemical shifts are in ppm downfield from tetramethylsilane (TMS) reference using the residual protonated solvents as an internal standard. The signals have been designated as follows: s (singlet), d (doublet), t (triplet), m (multiplets). High resolution mass spectra (HRMS) were deter-mined on Bruker-micrOTOF-Q II Mass Spectrometer. Absorption spectra were acquired using a Cary 5000 UV-Vis-NIR spectrophotometer in a 1 cm quartz cell. Fluorescence spectra were acquired using a Horiba QuantaMaster 8075-21 spectrofluorometer with xenon lamp excitation and liquid nitrogen cooled indium gallium arsenide solid state detector. […] The relative quantum yield of the rhodindolizine dye was calculated using a known technique. […] The absorbance point for the quantum yield was chosen because of similar overlap in the absorption spectra between the standard and the rhodindolizine dye. […]
(§2) Additionally, a range of solvent polarities were evaluated to access the polarity of RhIndz in the ground-state via absorption spectroscopy and in the excited-state via fluorescence spectroscopy (Table 6).

[2] = Absorption spectra (Cary 5000 UV-Vis-NIR spectrophotometer, 1 cm quartz cell); type: physicochemical; settings: ring closed lactone form, FIG. 2
Description: as §1, §2

fluorescence of closed spirocyclic form [1]: non-fluorescent
absorption maximum [2]: 375 nm
Compound: Cc1c(-c2ccccc2)c(-c2ccc3c(c2)Oc2cc(-c4c(-c5ccccc5)c(C)c5ccccn45)ccc2C32OC(=O)c3ccccc32)n2ccccc12 [RhIndz, 3′,6′-bis(1-methyl-2-phenylindolizin-3-yl)-3H-spiro[2-benzofuran-1,9′-xanthen]-3-one]
